Test results taken from patent US20230075856A1, “CYCLIC SULFAMIDE COMPOUNDS FOR TREATMENT OF HBV” (Assembly Biosciences, Inc., priority 2018, published 2023).
Like-named read-outs stand apart in the source and are kept apart here.

Tested on: HBV viral load production from HepAD38 cells
Assay: Viral production from HepAD38 cells: viral load in supernatant by qPCR of the HBV core sequence
Format: cell-based
Details: 5 days incubation, qPCR of supernatant HBV DNA vs DMSO control, read-out: viral load lowering EC50 (Activity)
Summary of the method: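 Viral load was measured by qPCR of the HBV core region in supernatant, quantified against DNA standards and compared with DMSO wells. Cells (50,000/well, tetracycline withdrawn, 2% FBS) received compound from 10 μM final for 5 days; EC50 from four-parameter nonlinear regression.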

[1] = Hepatitis B virus, HePAD38, 120 h

| Compound | EC50 [1] [nM] | EC50 [nM] |
| --- | --- | --- |
| Cc1cn(-c2ccccc2F)nc1CNC(=O)C1CC(C(=O)Nc2ccc(F)c(Cl)c2)N(C)S(=O)(=O)N1 (centres unmarked) [Compound 1142] | < 50 |  |
| Cc1nc(-c2ccccc2Cl)sc1CNC(=O)C1CC(C(=O)Nc2ccc(F)c(Cl)c2)N(C)S(=O)(=O)N1 (centres unmarked) [Compound 1015] | < 50 |  |
| Cc1ccccc1-c1nc(C)c(CNC(=O)C2CC(C(=O)Nc3ccc(F)c(Cl)c3)N(C)S(=O)(=O)N2)s1 (centres unmarked) [Compound 1017] | < 50 |  |
| Cc1ncc(CNC(=O)C2CC(C(=O)Nc3ccc(F)c(Cl)c3)N(CC(F)(F)F)S(=O)(=O)N2)s1 (single isomer, unassigned) [Compound 891-ISOMER-A, N3-(3-chloro-4-fluoro-phenyl)-N5-[(2-methylthiazol-5-yl)methyl]-1,1-dioxo-2-(2,2,2-trifluoroethyl)-1,2,6-thiadiazinane-3,5-dicarboxamide] | 100 to 10000 |  |
| CN1C(C(=O)Nc2ccc(F)c(Cl)c2)CC(C(=O)NC2CCN(C(=O)C3CC3)CC2)NS1(=O)=O (centres unmarked) [Compound 854] | < 50 |  |
| CN1C(C(=O)Nc2ccc(F)c(Cl)c2)CC(C(=O)NCc2cnc(C(F)(F)F)s2)NS1(=O)=O (single isomer, unassigned) [Compound 498-ISOMER-B, N3-(3-chloro-4-fluoro-phenyl)-2-methyl-1,1-dioxo-N5-[[2-(trifluoromethyl)thiazol-5-yl]methyl]-1,2,6-thiadiazinane-3,5-dicarboxamide] |  | 50 to 100 |
| CN1C(C(=O)Nc2ccc(F)c(Cl)c2)CC(C(=O)NCC2CCCCC2)NS1(=O)=O (single isomer, unassigned) [1160-ISOMER-A, N3-(3-chloro-4-fluoro-phenyl)-N5-(cyclohexylmethyl)-2-methyl-1,1-dioxo-1,2,6-thiadiazinane-3,5-dicarboxamide] | 50 to 100 |  |
| Cc1cn(-c2ccc(F)cc2)nc1CNC(=O)C1CC(C(=O)Nc2ccc(F)c(Cl)c2)N(C)S(=O)(=O)N1 (centres unmarked) [Compound 1141] | < 50 |  |
| CCN1CCC(Oc2ccc(-c3ncc(CNC(=O)C4CC(C(=O)Nc5ccc(F)c(Cl)c5)N(C)S(=O)(=O)N4)s3)cc2)CC1 (single isomer, unassigned) [Compound 921-ISOMER-A, N3-(3-chloro-4-fluoro-phenyl)-N5-[[2-[4-[(1-ethyl-4-piperidyl)oxy]phenyl]thiazol-5-yl]methyl]-2-methyl-1,1-dioxo-1,2,6-thiadiazinane-3,5-dicarboxamide] | < 50 |  |
| Cc1cc(CNC(=O)C2CC(C(=O)Nc3ccc(F)c(C#N)c3)N(C)S(=O)(=O)N2)n(C)n1 (centres unmarked) [Compound 773] | 100 to 10000 |  |
| CN1C(C(=O)Nc2ccc(F)c(Cl)c2)CC(C(=O)NC2CCN(C(=O)OCCCN3CCCCC3)CC2)NS1(=O)=O (centres unmarked) [Compound 964] | 100 to 10000 |  |
| CN1C(C(=O)Nc2ccc(F)c(Cl)c2)CC(C(=O)NC(c2ccccc2)c2cnc(-c3ccccc3F)s2)NS1(=O)=O (centres unmarked) [Compound 1084] | < 50 |  |
| Cc1ccccc1-c1nc(C)c(CNC(=O)C2CC(C(=O)Nc3ccc(F)c(Cl)c3)N(C)S(=O)(=O)N2)s1 (single isomer, unassigned) [1017-ISOMER-B, N3-(3-chloro-4-fluoro-phenyl)-2-methyl-N5-[[4-methyl-2-(o-tolyl)thiazol-5-yl]methyl]-1,1-dioxo-1,2,6-thiadiazinane-3,5-dicarboxamide] |  | 100 to 10000 |
| CCc1nc(CNC(=O)C2CC(C(=O)Nc3ccc(F)c(Cl)c3)N(C)S(=O)(=O)N2)cs1 (single isomer, unassigned) [Compound 742-ISOMER-B, N3-(3-chloro-4-fluoro-phenyl)-N5-[(2-ethylthiazol-4-yl)methyl]-2-methyl-1,1-dioxo-1,2,6-thiadiazinane-3,5-dicarboxamide] |  | < 50 |
| CN1C(C(=O)Nc2ccc(F)c(Cl)c2)CC(C(=O)Nc2ccc(-c3ccccc3)cc2)NS1(=O)=O (centres unmarked) [Compound 711] | 100 to 10000 |  |
| CN1C(C(=O)Nc2ccc(F)c(Cl)c2)CC(C(=O)NCc2ncc(-c3ccc(F)cc3)s2)NS1(=O)=O (centres unmarked) [Compound 1153] | < 50 |  |
| CN1C(C(=O)Nc2ccc(F)c(Cl)c2)CC(C(=O)NC2CCN(c3ccnc(Br)c3)CC2)NS1(=O)=O (centres unmarked) [Compound 1036] | < 50 |  |
